Marks after values point to notes of the source that are not given here.
Experiments:
Type in all cases: in vivo
Details in all cases: 100 = 100% disease control
[1] = tested on: Phakopsora pachyrhizi (the causal agent of Asian soybean rust); assay: Test A: preventive spray on soybean seedlings, visual disease rating (100 = 100% control; * 50 ppm, ** 10 ppm, *** 250 ppm)
Method in brief: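 Preventive test: one day after spraying compound (acetone/water suspension, 250 ppm PEG400), seedlings received rust spore inoculum, 24 h in saturated air then 8 days in growth chamber, both at 22 °C. Disease control scored visually, 100 = complete, 0 = none, relative to untreated controls.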

[2] = tested on: Puccinia recondita f. sp. tritici (the causal agent of wheat leaf rust); assay: Test B: preventive spray on wheat seedlings, disease rating (100 = 100% control; * 50 ppm, ** 10 ppm, *** 250 ppm)
Method in brief: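 Preventive test: Puccinia recondita f. sp. tritici spores were inoculated one day after run-off spraying of wheat seedlings with test suspension (acetone/water 50/50, 250 ppm PEG400). After 24 h in saturated air and 6 days in a growth chamber, both at 20° C, control was scored 0–100 versus untreated plants.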

[3] = tested on: Uncinula necator (the causal agent of grape powdery mildew); assay: Test C: preventive spray on grape seedlings, disease rating (100 = 100% control; * 50 ppm, ** 10 ppm, *** 250 ppm)
From the text: (§1) General protocol for preparing test suspensions for Tests A-E: the test compounds were first dissolved in acetone in an amount equal to 3% of the final volume and then suspended at the desired concentration (in ppm) in acetone and purified water (50/50 mix by volume) containing 250 ppm of the surfactant […] (polyhydric alcohol esters). The resulting test suspensions were then used in Tests A-E.
The test solution was sprayed to the point of run-off on grape seedlings. The following day the seedlings were inoculated with a spore suspension of Uncinula necator (the causal agent of grape powdery mildew) and incubated in a growth chamber at 20° C. for 12 days, after which time disease ratings were made.
(§2) Results for Tests A-E are given in Table A. In the Table, a rating of 100 indicates 100% disease control and a rating of 0 indicates no disease control (relative to the controls). An asterisk “*” or a double asterisk “**” or a triple asterisk “***” next to the rating value indicates a 50 ppm, 10 ppm and 250 ppm test suspension was used, respectively. A dash (-) indicates the compound was not tested.

[4] = tested on: Blumeria graminis f. sp. tritici (the causal agent of wheat powdery mildew); assay: Test E: preventive spray on wheat seedlings, visual disease rating (100 = 100% control; * 50 ppm, ** 10 ppm, *** 250 ppm)
From the text: as §1
The test suspension was sprayed to the point of run-off on wheat seedlings. The following day the seedlings were inoculated with a spore dust of Blumeria graminis f. sp. tritici, (also known as Erysiphe graminis f. sp. tritici, the causal agent of wheat powdery mildew) and incubated in a growth chamber at 20° C. for 8 days, after which time visual disease ratings were made.
as §2

[5] = tested on: Zymoseptoria tritici (the causal agent of wheat leaf blotch); assay: Test D: preventive spray on wheat seedlings, disease rating (100 = 100% control; * 50 ppm, ** 10 ppm, *** 250 ppm)
From the text: as §1
The test solution was sprayed to the point of run-off on wheat seedlings. The following day the seedlings were inoculated with a spore suspension of Zymoseptoria tritici (the causal agent of wheat leaf blotch) and incubated in a saturated atmosphere at 24° C. for 48 h, and then moved to a growth chamber at 20° C. for 17 days, after which time disease ratings were made.
as §2

[6] = 50 ppm test suspension, 0 = no control
[7] = 250 ppm test suspension, 0 = no control
[8] = 10 ppm test suspension, soybean seedlings
[9] = 10 ppm test suspension, wheat seedlings
[10] = 250 ppm test suspension, grape seedlings
[11] = 250 ppm test suspension, wheat seedlings
[12] = 10 ppm test suspension, 0 = no control
[13] = 250 ppm test suspension, soybean seedlings
[14] = 50 ppm test suspension, grape seedlings
[15] = 50 ppm test suspension, soybean seedlings
[16] = 50 ppm test suspension, wheat seedlings

| SMILES | Test A disease control rating [1, 6] | Test C disease control rating [3, 7] | Test E disease control rating [4, 7] | Test D disease control rating [5, 7] | Test C disease control rating [3, 10] | Test E disease control rating [4, 11] | Test D disease control rating [5, 11] | further results |
| --- | --- | --- | --- | --- | --- | --- | --- | --- |
| CCO/C(=C\Oc1ccc(Cn2cc(C(=O)NCc3ncccn3)cn2)cc1)C(F)(F)F [compound 435] | 96% | 45*** % | 81*** % | 5*** % | – | – | – | Test B disease control rating [2, 6]: 0% |
| CCOC(=O)c1cnn(Cc2ccc(C(O)CC(O)(O)C(F)(F)F)cc2)c1 (stereo not drawn) [compound 51] | – | – | – | – | 81*** % | 0*** % | 3*** % | Test A disease control rating [1, 8]: 0%; Test B disease control rating [2, 9]: 0% |
| CCO/C(=C\Oc1ccc(Cc2ncc(C(=O)NCC3CC3)o2)cc1)C(F)(F)F [compound 258] | – | 64*** % | 53*** % | 13*** % | – | – | – | Test A disease control rating [1, 12]: 96%; Test B disease control rating [2, 12]: 0% |
| CCOC(=O)c1cnn(Cc2ccc(O/C=C(\OCC)C(F)(F)F)c(C)c2)c1 [compound 410] | – | 88*** % | 13*** % | 11*** % | – | – | – | Test A disease control rating [1, 12]: 100%; Test B disease control rating [2, 12]: 0% |
| CCO/C(=C\Oc1ccc(Cn2cc(C(=O)OCCC#N)cn2)cc1)C(F)(F)F [compound 245] | – | – | – | – | 24*** % | 76*** % | 18*** % | Test A disease control rating [1, 8]: 100%; Test B disease control rating [2, 9]: 0% |
| CC#CCOC(=O)c1cnn(Cc2ccc(O/C=C(\OCC)C(F)(F)F)cc2)c1 [compound 243] | – | – | – | – | 29*** % | 56*** % | 0*** % | Test A disease control rating [1, 8]: 100%; Test B disease control rating [2, 9]: 0% |
| CCO/C(=C\Oc1cccc(Cn2cc(C(=O)N(CC)CC)cn2)c1)C(F)(F)F [compound 404] | 0% | 44*** % | 0*** % | 11*** % | – | – | – | Test B disease control rating [2, 6]: 0% |
| C=C(C)COC(=O)c1cnn(Cc2ccc(O/C=C(\OCC)C(F)(F)F)cc2)c1 [compound 242] | – | – | – | – | 87*** % | 69*** % | 27*** % | Test A disease control rating [1, 8]: 100%; Test B disease control rating [2, 9]: 0% |
| CCOC(=COc1ccc(C2CN(C(C)=O)C2)cc1)C(F)(F)F [compound 373] | 81% | 56*** % | 98*** % | 99*** % | – | – | – | Test B disease control rating [2, 6]: 0% |
| CCOC(=O)c1cnn(-c2ccc(O/C=C(\OCC)C(F)(F)F)cc2)c1 [compound 316] | 100% | – | – | – | – | – | – | Test B disease control rating [2, 6]: 9%; Test C disease control rating [3, 6]: 100%; Test E disease control rating [4, 6]: 73%; Test D disease control rating [5, 6]: 2% |
| CCOC(=O)c1cnn(Cc2ccc(O/C=C(\OCC)C(F)(F)F)cc2F)c1 [compound 375] | 100% | 66*** % | 99*** % | 95*** % | – | – | – | Test B disease control rating [2, 6]: 0% |
| CCOC(=O)c1cnn(Cc2ccc(SCC3(C(F)(F)F)OCCO3)cc2)c1 [compound 115] | – | – | – | – | 58% | 56% | 19% | Test A disease control rating [1, 13]: 0%; Test B disease control rating [2, 11]: 0% |
| CCO/C(=C\Oc1ccc(Cc2ncc(C(=O)NCC(F)F)o2)cc1)C(F)(F)F [compound 255] | – | – | – | – | 93*** % | 64*** % | 60*** % | Test A disease control rating [1, 8]: 89%; Test B disease control rating [2, 9]: 0% |
| C#CCOC(=O)c1cnn(Cc2ccc(O/C=C(\OCC)C(F)(F)F)cc2)c1 [compound 185] | – | – | – | – | – | 95*** % | 0*** % | Test A disease control rating [1, 8]: 100%; Test B disease control rating [2, 9]: 0%; Test C disease control rating [3, 14]: 100* % |
| N#Cc1ccc(OCC2(C(F)(F)F)OCCO2)cc1 [compound 98] | – | – | – | – | 31% | 0% | 77% | Test A disease control rating [1, 13]: 100%; Test B disease control rating [2, 11]: 100% |
| CCOC(=O)c1cnn(Cc2c(F)c(F)c(OCC(O)(O)C(F)(F)F)c(F)c2F)c1 [Compound 465] | 100% | 73*** % | 91*** % | 59*** % | – | – | – | Test B disease control rating [2, 6]: 100% |
| CCO/C(=C\Oc1ccc(Cc2ncc(C(=O)NCC3CC3)s2)cc1)C(F)(F)F [compound 254] | – | – | – | – | 10*** % | 56*** % | 67*** % | Test A disease control rating [1, 8]: 73%; Test B disease control rating [2, 9]: 0% |
| CCOC(=O)c1cnn(CSc2ccc(O/C=C(\OCC)C(F)(F)F)cc2)c1 [compound 457] | – | – | – | – | – | – | – | pest or weed control at 10 ppm ([1]; Phakopsora pachyrhizi, 10 ppm test suspension, 0 = no control): 89%; pest or weed control at 10 ppm ([2]; Puccinia recondita, 10 ppm test suspension, 0 = no control): 0%; pest or weed control at 250 ppm ([3]; Erysiphe necator, 250 ppm test suspension, 0 = no control): 73%; pest or weed control at 250 ppm ([4]; Blumeria graminis, 250 ppm test suspension, 0 = no control): 0%; pest or weed control at 250 ppm ([5]; Zymoseptoria tritici, 250 ppm test suspension, 0 = no control): 7% |
| CCO/C(=C\Oc1cccc(Cn2cc(C(=O)NCC3CC3)cn2)c1)C(F)(F)F [compound 393] | 38% | 63*** % | 0*** % | 69*** % | – | – | – | Test B disease control rating [2, 6]: 0% |
| CCO/C(=C\Oc1ccc(Cn2cc(C(=O)NCC(=O)OC)cn2)cc1)C(F)(F)F [compound 427] | – | 5*** % | 29*** % | 53*** % | – | – | – | Test A disease control rating [1, 12]: 13%; Test B disease control rating [2, 12]: 0% |
| CCOC(=O)c1cnnn1Cc1ccc(O/C=C(\OCC)C(F)(F)F)cc1 [compound 120] | – | – | – | – | – | – | – | Test A disease control rating [1, 15]: 100%; Test B disease control rating [2, 16]: 0%; Test C disease control rating [3, 14]: 23%; Test E disease control rating [4, 16]: 98%; Test D disease control rating [5, 16]: 17% |
| O=C(NCC1CC1)c1cnc(Cc2ccc(OCC3(C(F)(F)F)OCCO3)cc2)s1 [compound 259] | – | 31*** % | 83*** % | 88*** % | – | – | – | Test A disease control rating [1, 12]: 25%; Test B disease control rating [2, 12]: 0% |
| CCO/C(=C\Oc1ccc(Cn2cc(C(=O)NC3CC3)cn2)cc1)C(F)(F)F [compound 413] | – | 61*** % | 35*** % | 90*** % | – | – | – | Test A disease control rating [1, 12]: 0%; Test B disease control rating [2, 12]: 0% |
| N#Cc1cnn(Cc2ccc(OCC(O)(O)C(F)(F)F)cc2)c1 [compound 206] | – | – | – | – | 34*** % | 93*** % | 93*** % | Test A disease control rating [1, 15]: 100%; Test B disease control rating [2, 16]: 98% |
| CCOC(=O)c1cnn(Cc2ccc(O/C=C(\OC(C)C)C(F)(F)F)cc2)c1 [compound 57] | – | – | – | – | 64*** % | 95*** % | 28% | Test A disease control rating [1, 13]: 100%; Test B disease control rating [2, 11]: 0% |
| CCO/C(=C\Oc1cccc(Cn2cc(C(=O)NC)cn2)c1)C(F)(F)F [compound 403] | 54% | 74*** % | 0*** % | 17*** % | – | – | – | – |

— US20240122180A1, “FUNGICIDAL HALOMETHYL KETONES AND HYDRATES AND THEIR MIXTURES” (FMC Corporation, priority 2020, published 2024)
